{"source": "patent EP3381907A1", "about": "“SYMMETRICAL 2-AMINOPHENYL-BENZAZOLYL-5-ACETATE COMPOUNDS AND THEIR USE AS ANTI-HEPARANASE” (Leadiant Biosciences SA, priority 2017, dated 2018)", "key": {"HPSE-1": {"system": "HPSE-1", "assay": "Real-Time quantitative PCR of HPSE-1 mRNA in HT1080 cells", "assay_type": "cell-based, human", "settings": "24 h", "method": "(§1) To evaluate the effect of heparanase inhibitors on the tumor transcription of genes encoding for proangiogenic factors, such as FGF1/2, VEGF, MMP-9, HSPE-1, the relative mRNA levels were analyzed by quantitative Real-Time Quantitative PCR. To perform the assay, HT1080 (human fibrosarcoma) cells were cultured in complete medium containing 10%FCS (fetal calf serum). Cells were plated in 24-well plates and treated at fixed concentration (i.e., highest non-toxic concentration) of test compounds. After 24 h, cells were detached, collected and total RNA extracted by RNeasy Mini Kit (QIAGEN). Following reverse transcription step, FGF1/2, VEGF, MMP-9, HSPE-1 mRNA levels, were quantified by qPCR using the advanced Universal SYBR Green Supermix (Bio Rad) and ABI PRISM 7900HT Thermal Cycler System (Perkin Elmer), according to the manufacturer's instructions. Appropriate no-RT and non-template controls were included in each 96-well PCR reaction, and dissociation analysis was performed at the end of each run to confirm the specificity of the reaction. Relative levels of RNA were calculated using the ddCt method. Standard curve and sample data were run in duplicate.\n(§2) In the Table 5 a mean value is reported."}, "[1]": {"system": "U87MG (human glioblastoma astrocytoma)", "assay": "Matrigel cell invasion assay, U87MG", "assay_type": "cell-based", "settings": "Homo sapiens, U-87 MG, test compound at 2.5 µM, 24 h pre-treatment, 24 h invasion", "method": "Heparanase inhibitors were then evaluated for their activity on the invasive potential of HT1080 (human fibrosarcoma), U87MG (human glioblastoma astrocytoma) and U2OS (human osteosarcoma) human cell lines, using the Matrigel cell invasion assay which allows to assess the cell invasion ability of malignant and normal cells.\nInvasion assay was performed using BioCoat cell culture inserts (BioCoat 8.0µm PET Membrane 24 Well Permeable Supports, Corning). Filters were coated with 100 µl of 300 µg/ml Matrigel dissolved in coating buffer (0.01 M Tris pH 8.0, 0.7% NaCl) (Becton-Dickinson Sciences). DMEM (Dulbecco's Modified Eagle's Medium) containing 5% FBS was added to the lower chambers. Cells were pre-treated with heparanase inhibitors for 24 h, detached and added to the upper chambers in media containing the inhibitors. Cells were allowed to invade for 24 h at 37°C in a CO2 incubator and then unmigrated cells were removed from the upper chamber with a cotton swab. The invading cells were fixed, stained with 0.1% crystal violet for 10 min at room temperature, photographed and counted under inverted microscope.\nTest compounds were analyzed at fixed concentration (2.5 µM) for several fields, in duplicates. Activity of test compounds was compared to the reference compound. Activity of most interesting compound was confirmed in a second cell invasion assay. Data were expressed as the percent invasion with respect to cell migration through uncoated insert membrane (see Table 3 below)\n(§3) Table 3. […] In Invasion assay, data were expressed as the percent invasion (range) with respect to cell migration through uncoated insert membrane. In Adhesion assay, data were expressed as the percent of adhesion with respect to the control (100%). • Legend • ++: 50-90% • + : < 50% • - : Not Active"}, "FGF-2": {"system": "FGF-2", "assay": "Real-Time quantitative PCR of FGF-2 mRNA in HT1080 cells", "assay_type": "cell-based, human", "settings": "24 h", "method": "as §1, §2"}, "[2]": {"system": "HT1080 (human fibrosarcoma)", "assay": "Cell adhesion assay on matrigel coated wells, HT1080", "assay_type": "cell-based", "settings": "HT1080, test compound at 2.5 µM; percent of adhesion with respect to the control (100%)", "method": "(§4) Cell surface, non-integrin molecules such as heparan sulfate proteoglycans (HSPGs) may be involved in the regulation of early adhesive stages of cell-ECM interactions. A cell adhesion assay has been employed to determine if the newly designed heparanase inhibitors were able to interfere with adhesion properties of cancer cells.\n(§5) HT1080 (human fibrosarcoma) and U87MG (human glioblastoma astrocytoma) cells were treated for 18-20 h with test compounds in complete medium supplemented with 10% FCS. Then cells were collected, washed in complete medium, and added to matrigel coated wells in triplicate, at previously identified optimal seeding density, and incubated at 37 °C in complete medium for times ranging from 15 minutes to 4h, according to the cell line. After incubation, the wells were washed three times with serum-free medium and the remaining firmly attached cells were stained with crystal-violet 0.1%. Optical density was measured at 560 nm by Victor 3 (Perkin-Elmer) plate analyzer. Each experiment was repeated three times.\nas §3"}, "[3]": {"system": "HT1080 (human fibrosarcoma)", "assay": "SRB Cell Cytotoxicity Assay, HT1080", "assay_type": "cell-based", "settings": "HT-1080, HT1080, 72h treatment, read-out: Concentration (µM) of test compounds at which the cell growth is inhibited by 50 %. HT1080", "excerpt": "(§6) SRB Cell Cytotoxicity Assay is an assay based upon the quantitative staining of cellular proteins by sulforhodamine B (SRB). This assay can be used for high-throughput drug screening (Vichai & Kirkitara, Nature Protocol. 2006, 1, 112). Sulforhodamine B is an anionic aminoxanthene dye that forms an electrostatic complex with the basic amino acid residues of proteins under moderately acid conditions, which provides a sensitive linear response.\n(§7) To assess a putative antiproliferative activity of the selected compounds, HT1080 (human fibrosarcoma), U87MG (human glioblastoma astrocytoma) and U2OS (human osteosarcoma) cell lines were treated for 72h, in triplicate, with increasing concentrations of heparanase inhibitors. Inhibition of cell proliferation was then measured by the classical colorimetric SRB Cell Cytotoxicity assay. Absorbance was measured by spectrophotometer at a wavelength of 510 nm and cell proliferation was determined as percent with respect to control cells (cells treated with the vehicle alone). EC50 values were then determined by GraphPad Prism."}, "VEGF": {"system": "VEGF", "assay": "Real-Time quantitative PCR of VEGF mRNA in HT1080 cells", "assay_type": "cell-based, human", "settings": "24 h", "method": "as §1, §2"}, "FGF-1": {"system": "FGF-1", "assay": "Real-Time quantitative PCR of FGF-1 mRNA in HT1080 cells", "assay_type": "cell-based, human", "settings": "24 h", "method": "as §1, §2"}, "[4]": {"system": "U2OS (human osteosarcoma)", "assay": "SRB Cell Cytotoxicity Assay, U2OS", "assay_type": "cell-based", "settings": "72h treatment, read-out: Concentration (µM) of test compounds at which the cell growth is inhibited by 50 %. U2OS", "excerpt": "as §6, §7"}, "[5]": {"system": "U87MG (human glioblastoma astrocytoma)", "assay": "Cell adhesion assay on matrigel coated wells, U87MG", "assay_type": "cell-based", "settings": "test compound at 2.5 µM, percent of adhesion with respect to the control (100%)", "method": "as §4, §5, §3"}, "[6]": {"system": "U87MG (human glioblastoma astrocytoma)", "assay": "SRB Cell Cytotoxicity Assay, U87MG", "assay_type": "cell-based", "settings": "U-87 MG, 72h treatment, read-out: Concentration (µM) of test compounds at which the cell growth is inhibited by 50 %. U87MG", "excerpt": "as §6, §7"}}, "data": [{"smiles": "O=C(O)Cc1ccc2oc(-c3ccc(NC(=O)Nc4ccc(-c5nc6cc(CC(=O)O)ccc6o5)cc4F)c(F)c3)nc2c1", "note": "[Compound 20, 2,2'-(((Carbonylbis(azanediyl))bis(3-fluoro-4,1-phenylene))bis(benzo[d]oxazole-2,5-diyl))diacetic acid]", "values": [{"measurement": "Gene Expression (% mRNA vs. control) HPSE-1", "setting": "HPSE-1; 2.5 uM", "value": "∼ 100%"}, {"measurement": "inhibition at 2.5 µM", "setting": "[1]", "value": "50 to 90", "unit": "%"}, {"measurement": "Gene Expression (% mRNA vs. control) FGF-2", "setting": "FGF-2; 2.5 uM", "value": "∼ 88%"}, {"measurement": "Adhesion Assay (%) HT1080", "setting": "[2]", "value": 83.25, "unit": "%"}, {"measurement": "EC50", "setting": "[3]", "value": "> 10", "unit": "µM"}, {"measurement": "Gene Expression (% mRNA vs. control) VEGF", "setting": "VEGF; 2.5 uM", "value": "∼ 72%"}, {"measurement": "Gene Expression (% mRNA vs. control) FGF-1", "setting": "FGF-1; 2.5 uM", "value": "∼ 85%"}, {"measurement": "EC50", "setting": "[4]", "value": "> 10", "unit": "µM"}, {"measurement": "Adhesion Assay (%) U87MG", "setting": "[5]", "value": 64.90, "unit": "%"}, {"measurement": "EC50", "setting": "[6]", "value": "> 10", "unit": "µM"}]}, {"smiles": "O=C(O)CNC(=O)Cc1ccc2oc(-c3ccc(NC(=O)Nc4ccc(-c5nc6cc(CC(=O)NCC(=O)O)ccc6o5)cc4F)c(F)c3)nc2c1", "note": "[Compound 25, 2,2'-((2,2'-(((Carbonylbis(azanediyl))bis(3-fluoro-4,1-phenylene))bis(benzo[d]oxazole-2,5-diyl))bis(acetyl))bis(azanediyl))diacetic acid]", "values": [{"measurement": "Gene Expression (% mRNA vs. control) HPSE-1", "setting": "HPSE-1; 10.0 uM", "value": "∼ 62%"}, {"measurement": "inhibition at 2.5 µM", "setting": "[1]", "value": "50 to 90", "unit": "%"}, {"measurement": "Gene Expression (% mRNA vs. control) FGF-2", "setting": "FGF-2; 10.0 uM", "value": "∼ 68%"}, {"measurement": "Adhesion Assay (%) HT1080", "setting": "[2]", "value": 81.60, "unit": "%"}, {"measurement": "EC50", "setting": "[3]", "value": "> 10", "unit": "µM"}, {"measurement": "Gene Expression (% mRNA vs. control) VEGF", "setting": "VEGF; 10.0 uM", "value": "∼ 63%"}, {"measurement": "Gene Expression (% mRNA vs. control) FGF-1", "setting": "FGF-1; 10.0 uM", "value": "∼ 52%"}, {"measurement": "EC50", "setting": "[4]", "value": "> 10", "unit": "µM"}, {"measurement": "Adhesion Assay (%) U87MG", "setting": "[5]", "value": 12.30, "unit": "%"}, {"measurement": "EC50", "setting": "[6]", "value": "> 10", "unit": "µM"}]}]}
